Assay [1] has as its system MDA-MB-231. Nature of the assay: cells. The settings on record: Homo sapiens, MDA-MB-231, 72 h. In kind it is functional, cell-based.
Description: Antiproliferative activity against human MDA-MB-231 cells assessed as cell viability after 72 hrs by MTT assay
For assay [2], the system named is MDA-MB-468. Nature of the assay: cells. The class given is functional, cell-based. As to conditions: Homo sapiens, MDA-MB-468, 72 h.
Description: Antiproliferative activity against human MDA-MB-468 cells assessed as cell viability after 72 hrs by MTT assay
Assay [3] relates to MCF7. Put plainly: cells. In kind it is functional, cell-based. The settings on record: Homo sapiens, MCF7, 72 h.
Description: Antiproliferative activity against human MCF7 cells assessed as cell viability after 72 hrs by MTT assay
The test system of assay [4] is MCF-10A. Nature of the assay: cells. In kind it is ADME, cell-based. As to conditions: Homo sapiens, 72 h.
Description: Antiproliferative activity against human MCF-10A cells assessed as cell viability after 72 hrs by MTT assay
Assay [5] has as its target T1, Histone-lysine N-methyltransferase EZH2 (Homo sapiens, UniProt Q15910).
Target sequence in this assay (Q15910 whole entry): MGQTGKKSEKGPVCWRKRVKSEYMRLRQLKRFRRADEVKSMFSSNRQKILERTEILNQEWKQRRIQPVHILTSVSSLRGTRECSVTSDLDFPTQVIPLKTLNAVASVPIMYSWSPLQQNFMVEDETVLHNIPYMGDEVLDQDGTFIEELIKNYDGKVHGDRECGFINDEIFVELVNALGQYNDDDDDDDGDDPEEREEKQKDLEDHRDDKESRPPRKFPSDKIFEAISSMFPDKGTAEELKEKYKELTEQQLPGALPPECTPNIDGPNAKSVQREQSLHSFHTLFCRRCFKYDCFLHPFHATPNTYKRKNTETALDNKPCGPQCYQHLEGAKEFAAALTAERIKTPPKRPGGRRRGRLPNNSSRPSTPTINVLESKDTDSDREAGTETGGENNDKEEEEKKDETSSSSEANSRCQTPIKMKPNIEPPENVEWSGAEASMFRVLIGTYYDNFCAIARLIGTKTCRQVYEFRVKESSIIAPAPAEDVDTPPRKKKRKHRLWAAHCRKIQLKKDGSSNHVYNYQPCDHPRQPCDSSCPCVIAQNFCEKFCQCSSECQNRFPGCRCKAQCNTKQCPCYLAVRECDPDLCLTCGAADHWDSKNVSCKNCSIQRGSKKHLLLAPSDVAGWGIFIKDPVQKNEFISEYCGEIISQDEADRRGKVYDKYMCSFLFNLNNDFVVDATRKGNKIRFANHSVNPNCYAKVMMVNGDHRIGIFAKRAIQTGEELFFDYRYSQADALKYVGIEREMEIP
Description: Inhibition of recombinant PRC2 complex (unknown origin) assessed as dissociation rate constant using H3K27me0 peptide substrate incubated for 3 hrs by HMT assay
Assay [6] deals with T1, Histone-lysine N-methyltransferase EZH2. The source holds these as a separate data set.
Target sequence in this assay (Q15910 whole entry): as above
Description: Inhibition of recombinant PRC2 complex (unknown origin) assessed as kd/ka using H3K27me0 peptide substrate incubated for 3 hrs by HMT assay
Assay [7] has the same target. The settings on record: time 3.0 hrs.
Target sequence in this assay (Q15910 whole entry, looked up): as the sequence (Q15910 whole entry) above
The target is the same in assay [8]. This is another data set of the same source.
Target sequence in this assay (Q15910 whole entry): as above

As for `CCC(=O)Nc1cc(-c2ccc(N3CCN(C(=O)c4cc(Cc5n[nH]c(=O)c6ccccc56)ccc4F)CC3)nc2)cc(C(=O)NCc2c(C)cc(C)[nH]c2=O)c1C`, the IC50 in assay [1] was 8.72 µM; in assay [2], 0.33 µM; in assay [3] it was 17.7 µM; in assay [4], > 50 µM. Further, the Kd in assay [5] amounted to 0.09155 s⁻¹; in assay [6], 18.37 s⁻¹. Also, the Ka in assay [7] is 4.98 10^6/M/s.

Turning to `CC[C@H](C)n1nc(C)c2c(C(=O)NCc3c(C)cc(C)[nH]c3=O)cc(-c3ccc(N4CCNCC4)nc3)cc21`, the half-inhibitory concentration (IC50) is 9.26 µM in assay [1]; 9.97 µM in assay [2]; 19.5 µM in assay [3]; > 50 µM in assay [4]; 0.0108 µM in assay [8]. Also, the results for the Kd in assay [5] and in assay [6] were 0.06934 s⁻¹ and 21.44 s⁻¹, respectively. Also, the Ka in assay [7] is 3.23 10^6/M/s.

On to `CNc1cc(-c2ccc(N3CCN(C(=O)c4cc(Cc5n[nH]c(=O)c6ccccc56)ccc4F)CC3)nc2)cc(C(=O)NCc2c(C)cc(C)[nH]c2=O)c1C`, for which the IC50 in assay [1] is 46 µM; in assay [2], 17.3 µM; in assay [3] it was > 50 µM; in assay [4], > 50 µM.

`CCNc1cc(-c2ccc(N3CCN(C(=O)c4cc(Cc5n[nH]c(=O)c6ccccc56)ccc4F)CC3)nc2)cc(C(=O)NCc2c(C)cc(C)[nH]c2=O)c1C`: the IC50 was 32.3 µM in assay [1], 9.56 µM in assay [2], > 50 µM in assay [3] and > 50 µM in assay [4].

On to `Cc1cc(C)c(CNC(=O)c2cccc(-c3ccc(N4CCN(C(=O)c5cc(Cc6n[nH]c(=O)c7ccccc67)ccc5F)CC4)nc3)c2)c(=O)[nH]1`, for which the IC50 was 25 µM in assay [1], 29.7 µM in assay [2], 48.4 µM in assay [3] and > 50 µM in assay [4].

Take `Cc1cc(C)c(CNC(=O)c2cc(-c3ccc(N4CCN(C(=O)c5cc(Cc6n[nH]c(=O)c7ccccc67)ccc5F)CC4)nc3)cc(N)c2C)c(=O)[nH]1`: the IC50 in assay [1] was 1920 µM; in assay [2] it was 12.1 µM; in assay [3] it was 37.4 µM; in assay [4], > 50 µM.

With `Cc1cc(C)c(CNC(=O)c2cc(-c3ccc(N4CCN(C(=O)c5cc(Cc6n[nH]c(=O)c7ccccc67)ccc5F)CC4)nc3)cc(N(C)C)c2C)c(=O)[nH]1`, the IC50 in assay [1] was 23.2 µM; in assay [2] it was 15.2 µM; in assay [3], 38 µM; in assay [4], > 50 µM.

In the case of `Cc1cc(C)c(CNC(=O)c2cc(-c3ccc(N4CCN(C(=O)c5cc(Cc6n[nH]c(=O)c7ccccc67)ccc5F)CC4)nc3)cc3c2cnn3C(=O)N(C)C)c(=O)[nH]1`, the half-maximal inhibitory concentration (IC50) in assay [1], in assay [2], in assay [3] and in assay [4] was > 50 µM in each case.

Regarding `Cc1cc(C)c(CNC(=O)c2cc(-c3ccc(N4CCN(C(=O)c5cc(Cc6n[nH]c(=O)c7ccccc67)ccc5F)CC4)nc3)cc3c2ccn3C)c(=O)[nH]1`, the half-inhibitory concentration (IC50) in assay [1], in assay [2], in assay [3] and in assay [4] was > 50 µM each time.

As for `CCC(=O)N(CC)c1cc(-c2ccc(N3CCN(C(=O)c4cc(Cc5n[nH]c(=O)c6ccccc56)ccc4F)CC3)nc2)cc(C(=O)NCc2c(C)cc(C)[nH]c2=O)c1C`, the half-maximal inhibitory concentration (IC50) in assay [1] was 2.82 µM; in assay [2], 2.11 µM; in assay [3], 18.2 µM; in assay [4], > 50 µM. The Kd in assay [5] was 0.02027 s⁻¹; in assay [6], 31.74 s⁻¹. Also, the Ka in assay [7] is 6.39 10^5/M/s.

Regarding `COc1cc(C)c(C(=O)NCc2c(C)cc(C)[nH]c2=O)cc1-c1ccc(N2CCN(C(=O)c3cc(Cc4n[nH]c(=O)c5ccccc45)ccc3F)CC2)nc1`, the concentration for half-maximal inhibition (IC50) is 26.1 µM in assay [1], 1940 µM in assay [2], 44.2 µM in assay [3] and > 50 µM in assay [4].

As to `Cc1cc(C)c(CNC(=O)c2cc(-c3ccc(N4CCN(C(=O)c5cc(Cc6n[nH]c(=O)c7ccccc67)ccc5F)CC4)nc3)cc(NC(=O)CC(C)C)c2C)c(=O)[nH]1`, the half-maximal inhibitory concentration (IC50) in assay [1] was 9.42 µM; in assay [2] it was 0.76 µM; in assay [3] it was 20 µM; in assay [4], > 50 µM. For the same compound, the Kd is 0.1116 s⁻¹ in assay [5] and 25.46 s⁻¹ in assay [6]. In addition, in assay [7], the Ka is 4.54 10^6/M/s.

Consider `C=C(C)C(=O)N(CC)c1cc(-c2ccc(N3CCN(C(=O)c4cc(Cc5n[nH]c(=O)c6ccccc56)ccc4F)CC3)nc2)cc(C(=O)NCc2c(C)cc(C)[nH]c2=O)c1C`, for which the IC50 in assay [1] is 8.73 µM; in assay [2], 2.78 µM; in assay [3], 21.2 µM; in assay [4], > 50 µM. Moreover, the Kd in assay [5] was found to be 0.04302 s⁻¹; in assay [6], 38.77 s⁻¹. Besides, the Ka in assay [7] was 1.11 10^6/M/s.

Consider `Cc1cc(C)c(CNC(=O)c2cc(-c3ccc(N4CCN(C(=O)c5cc(Cc6n[nH]c(=O)c7ccccc67)ccc5F)CC4)nc3)cc(NC(=O)CCC(=O)N(C)C)c2C)c(=O)[nH]1`, for which the IC50 in assay [1] was 22.1 µM; in assay [2], 8.24 µM; in assay [3], 30.4 µM; in assay [4], > 50 µM.

Consider `Cc1cc(C)c(CNC(=O)c2cc(-c3ccc(N4CCN(C(=O)c5cc(Cc6n[nH]c(=O)c7ccccc67)ccc5F)CC4)nc3)cc3c2cnn3C(C)C)c(=O)[nH]1`, for which the IC50 in assay [1] was 25.8 µM; in assay [2], 17.9 µM; in assay [3], 40.2 µM; in assay [4], > 50 µM.

As to `CC(=O)Nc1cc(-c2ccc(N3CCN(C(=O)c4cc(Cc5n[nH]c(=O)c6ccccc56)ccc4F)CC3)nc2)cc(C(=O)NCc2c(C)cc(C)[nH]c2=O)c1C`, the half-inhibitory concentration (IC50) in assay [1] was 2.63 µM; in assay [2], 0.41 µM; in assay [3], 12.1 µM; in assay [4], > 50 µM; in assay [8], 0.0365 µM. In addition, the Kd in assay [5] amounted to 0.01586 s⁻¹; in assay [6] it was 14.56 s⁻¹. In addition, in assay [7], the Ka was 1.09 10^6/M/s.

With `Cc1cc(C)c(CNC(=O)c2cc(-c3ccc(N4CCN(C(=O)c5cc(Cc6n[nH]c(=O)c7ccccc67)ccc5F)CC4)nc3)cc(C(F)(F)F)c2)c(=O)[nH]1`, the IC50 in assay [1] is 43.4 µM; in assay [2] it was > 50 µM; in assay [3], > 50 µM; in assay [4], > 50 µM.

For the compound `Cc1cc(C)c(CNC(=O)c2cc(-c3ccc(N4CCN(C(=O)c5cc(Cc6n[nH]c(=O)c7ccccc67)ccc5F)CC4)nc3)cc(NC(C)C)c2C)c(=O)[nH]1`, the IC50 was > 50 µM in assay [1], 16.5 µM in assay [2], > 50 µM in assay [3] and > 50 µM in assay [4].

Regarding `C=CCn1ncc2c(C(=O)NCc3c(C)cc(C)[nH]c3=O)cc(-c3ccc(N4CCN(C(=O)c5cc(Cc6n[nH]c(=O)c7ccccc67)ccc5F)CC4)nc3)cc21`, the IC50 in assay [1], in assay [2], in assay [3] and in assay [4] was > 50 µM each time.

The term IC50 denotes the point on the concentration scale where inhibition reaches its midpoint. Read a high IC50 as lower potency.
